In article PMC4767605 (Cancer chemotherapy and pharmacology, 2016):
Read-outs that look alike come from different tables or passages of the source.

[1] = Cohort 3 (n=3): ASP9853 37.5 mg + docetaxel 60 mg/m^2
[2] = Cohort 4 (n=7): ASP9853 50 mg + docetaxel 60 mg/m^2
[3] = Total ASP9853 combination with docetaxel (n=20)
[4] = lead-in phase, ASP9853 single agent
[5] = patients receiving ASP9853 in combination with docetaxel

O.O.O=C(/C=C/c1ccc(Cl)cc1)N[C@@H](Cc1ccccn1)C(=O)NCC(=O)N1CCC(Oc2cc(C(F)(F)F)ncn2)CC1 [ASP9853, (2E)-3-(4-chlorophenyl)-N-[(1S)-2-oxo-2-{[2-oxo-2-(4-{[6-(trifluoromethyl)-4-pyrimidinyl]oxy}-1-piperidinyl)ethyl]amino}-1-(2-pyridinylmethyl)ethyl]acrylamide dehydrate]
AE potentially related to ASP9853: Decreased appetite; Grade All [1]: 1 (33) n (%)
AE potentially related to ASP9853: Diarrhea; Grade 3/4 (only Grade 3) [1]: 0 n (%)
AE potentially related to ASP9853: Diarrhea; Grade All [1]: 1 (33) n (%)
AE potentially related to ASP9853: Dizziness; Grade 3/4 [1]: 0 n (%)
AE potentially related to ASP9853: Dizziness; Grade All [1]: 1 (33) n (%)
AE potentially related to ASP9853: Fatigue; Grade 3/4 (only Grade 3) [1]: 0 n (%)
AE potentially related to ASP9853: Fatigue; Grade All [1]: 2 (67) n (%)
AE potentially related to ASP9853: Febrile neutropenia; Grade 3/4 [1]: 0 n (%)
AE potentially related to ASP9853: Febrile neutropenia; Grade All [1]: 0 n (%)
AE potentially related to ASP9853: Nausea; Grade 3/4 [1]: 0 n (%)
AE potentially related to ASP9853: Nausea; Grade All [1]: 1 (33) n (%)
AE potentially related to ASP9853: Neutropenia; Grade 3/4 [1]: 1 (33) n (%)
AE potentially related to ASP9853: Neutropenia; Grade All [1]: 1 (33) n (%)
AE potentially related to ASP9853: Neutrophil count decreased; Grade 3/4 [1]: 1 (33) n (%)
AE potentially related to ASP9853: Neutrophil count decreased; Grade All [1]: 1 (33) n (%)
AE potentially related to ASP9853: Overall; Grade 3/4 [1]: 2 (67) n (%)
AE potentially related to ASP9853: Overall; Grade All [1]: 3 (100) n (%)
AE potentially related to ASP9853: Vomiting; Grade 3/4 [1]: 0 n (%)
AE potentially related to ASP9853: Vomiting; Grade All [1]: 0 n (%)
AE potentially related to ASP9853: White blood cell count decreased; Grade All [1]: 2 (67) n (%)
DLTs (Cohort 3: ASP9853 37.5 mg + docetaxel 60 mg/m^2, three patients): no DLTs were observed
SAE considered related to ASP9853: leukopenia (Cohort 4): 1 n
SAE considered related to ASP9853: neutropenia (Cohort 4): 1 n
AE potentially related to ASP9853: Anemia; Grade 3/4 [2]: 0 n (%)
AE potentially related to ASP9853: Anemia; Grade All [2]: 1 (14) n (%)
AE potentially related to ASP9853: Asthenia; Grade 3/4 [2]: 0 n (%)
AE potentially related to ASP9853: Asthenia; Grade All [2]: 0 n (%)
AE potentially related to ASP9853: Constipation; Grade 3/4 [2]: 0 n (%)
AE potentially related to ASP9853: Constipation; Grade All [2]: 1 (14) n (%)
AE potentially related to ASP9853: Decreased appetite; Grade 3/4 [2]: 0 n (%)
AE potentially related to ASP9853: Decreased appetite; Grade All [2]: 0 n (%)
AE potentially related to ASP9853: Diarrhea; Grade 3/4 (only Grade 3) [2]: 0 n (%)
AE potentially related to ASP9853: Diarrhea; Grade All [2]: 0 n (%)
AE potentially related to ASP9853: Dizziness; Grade 3/4 [2]: 0 n (%)
AE potentially related to ASP9853: Dizziness; Grade All [2]: 2 (29) n (%)
AE potentially related to ASP9853: Fatigue; Grade 3/4 (only Grade 3) [2]: 1 (14) n (%)
AE potentially related to ASP9853: Fatigue; Grade All [2]: 2 (29) n (%)
AE potentially related to ASP9853: Febrile neutropenia; Grade 3/4 [2]: 0 n (%)
AE potentially related to ASP9853: Febrile neutropenia; Grade All [2]: 0 n (%)
AE potentially related to ASP9853: Nausea; Grade 3/4 [2]: 0 n (%)
AE potentially related to ASP9853: Nausea; Grade All [2]: 1 (14) n (%)
AE potentially related to ASP9853: Neutropenia; Grade 3/4 [2]: 2 (29) n (%)
AE potentially related to ASP9853: Neutropenia; Grade All [2]: 2 (29) n (%)
AE potentially related to ASP9853: Neutrophil count decreased; Grade 3/4 [2]: 1 (14) n (%)
AE potentially related to ASP9853: Neutrophil count decreased; Grade All [2]: 1 (14) n (%)
AE potentially related to ASP9853: Overall; Grade 3/4 [2]: 4 (57) n (%)
AE potentially related to ASP9853: Overall; Grade All [2]: 7 (100) n (%)
AE potentially related to ASP9853: Vomiting; Grade 3/4 [2]: 0 n (%)
AE potentially related to ASP9853: Vomiting; Grade All [2]: 1 (14) n (%)
AE potentially related to ASP9853: White blood cell count decreased; Grade All [2]: 2 (29) n (%)
AE potentially related to ASP9853: Anemia; Grade 3/4 [3]: 0 n (%)
AE potentially related to ASP9853: Anemia; Grade All [3]: 3 (15) n (%)
AE potentially related to ASP9853: Asthenia; Grade 3/4 [3]: 0 n (%)
AE potentially related to ASP9853: Asthenia; Grade All [3]: 2 (10) n (%)
AE potentially related to ASP9853: Constipation; Grade 3/4 [3]: 0 n (%)
AE potentially related to ASP9853: Constipation; Grade All [3]: 3 (15) n (%)
AE potentially related to ASP9853: Decreased appetite; Grade 3/4 [3]: 0 n (%)
AE potentially related to ASP9853: Decreased appetite; Grade All [3]: 2 (10) n (%)
AE potentially related to ASP9853: Diarrhea; Grade 3/4 (only Grade 3) [3]: 1 (5) n (%)
AE potentially related to ASP9853: Diarrhea; Grade All [3]: 4 (20) n (%)
AE potentially related to ASP9853: Dizziness; Grade 3/4 [3]: 0 n (%)
AE potentially related to ASP9853: Dizziness; Grade All [3]: 3 (15) n (%)
AE potentially related to ASP9853: Fatigue; Grade 3/4 (only Grade 3) [3]: 2 (10) n (%)
AE potentially related to ASP9853: Fatigue; Grade All [3]: 9 (45) n (%)
AE potentially related to ASP9853: Febrile neutropenia; Grade 3/4 [3]: 2 (10) n (%)
AE potentially related to ASP9853: Febrile neutropenia; Grade All [3]: 2 (10) n (%)
AE potentially related to ASP9853: Nausea; Grade 3/4 [3]: 0 n (%)
AE potentially related to ASP9853: Nausea; Grade All [3]: 4 (20) n (%)
AE potentially related to ASP9853: Neutropenia; Grade 3/4 [3]: 4 (20) n (%)
AE potentially related to ASP9853: Neutropenia; Grade All [3]: 4 (20) n (%)
AE potentially related to ASP9853: Neutrophil count decreased; Grade 3/4 [3]: 2 (10) n (%)
AE potentially related to ASP9853: Neutrophil count decreased; Grade All [3]: 2 (10) n (%)
AE potentially related to ASP9853: Overall; Grade 3/4 [3]: 11 (55) n (%)
AE potentially related to ASP9853: Overall; Grade All [3]: 18 (90) n (%)
AE potentially related to ASP9853: Vomiting; Grade 3/4 [3]: 0 n (%)
AE potentially related to ASP9853: Vomiting; Grade All [3]: 4 (20) n (%)
AE potentially related to ASP9853: White blood cell count decreased; Grade All [3]: 5 (25) n (%)
Patients with AEs considered to be potential DLTs (all cohorts, ASP9853 + docetaxel): Five
Patients who met the protocol-defined DLT criteria (in Cohorts 1 and 2): three
Patients with post-baseline maximum Grade 1 neutropenia (laboratory evaluation): three
Patients with post-baseline maximum Grade 4 neutropenia (laboratory evaluation): eight
AE possibly related to ASP9853: QT prolonged electrocardiogram [4]: 1 n
AE possibly related to ASP9853: arthralgia [4]: 1 n
AE possibly related to ASP9853: asthenia [4]: 1 n
AE possibly related to ASP9853: gastrooesophageal reflux disease [4]: 1 n
AE possibly related to ASP9853: leukopenia [4]: 1 n
AE possibly related to ASP9853: nausea [4]: 1 n
AE possibly related to ASP9853: pollakiuria [4]: 1 n
AE possibly related to ASP9853: vomiting [4]: 1 n
AE regardless of relationship to study drug: alopecia [5]: 30.0%
AE regardless of relationship to study drug: decreased appetite [5]: 30.0%
AE regardless of relationship to study drug: decreased white blood cells [5]: 35.0%
AE regardless of relationship to study drug: fatigue [5]: 45.0%
AE regardless of relationship to study drug: nausea [5]: 35.0%
AE regardless of relationship to study drug: neutropenia [5]: 50.0%
